Assays:
[1] = target: Histamine H3 receptor (Cavia porcellus, UniProt Q9JI35); test: Inhibition of [3H]N-alpha-methylhistamine binding to guinea pig brain Histamine H3 receptor
[2] = target: Histamine H1 receptor (Cavia porcellus) (UniProt P31389); test: H1-mediated bronchoconstrictor effect after intravenous administration in anesthetized guinea pig; assay type: functional, organism-based; settings: Lung
[3] = target: Histamine H1 receptor (Cavia porcellus, UniProt P31389); test: Binding affinity to H-1 receptor was determined in guinea pig brain tissue using [3H]- […] ligand
Histamine H1 receptor, sequence (P31389 whole entry): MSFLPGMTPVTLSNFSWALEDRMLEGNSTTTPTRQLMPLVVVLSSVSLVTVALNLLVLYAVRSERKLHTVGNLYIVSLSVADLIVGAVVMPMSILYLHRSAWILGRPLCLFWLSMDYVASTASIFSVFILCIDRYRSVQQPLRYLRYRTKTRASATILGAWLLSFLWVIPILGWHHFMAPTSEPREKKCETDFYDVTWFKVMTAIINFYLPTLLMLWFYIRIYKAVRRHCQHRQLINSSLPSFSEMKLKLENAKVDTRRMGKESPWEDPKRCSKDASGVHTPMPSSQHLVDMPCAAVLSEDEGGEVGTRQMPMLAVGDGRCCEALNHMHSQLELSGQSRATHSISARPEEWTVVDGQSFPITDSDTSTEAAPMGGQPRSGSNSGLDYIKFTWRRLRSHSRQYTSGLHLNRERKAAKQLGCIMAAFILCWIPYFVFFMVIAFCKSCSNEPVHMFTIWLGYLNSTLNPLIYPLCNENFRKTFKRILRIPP

[4] = target: Histamine H3 receptor (Cavia porcellus) (UniProt Q9JI35); settings: Ileum
Histamine H3 receptor (Cavia porcellus), sequence (Q9JI35 whole entry): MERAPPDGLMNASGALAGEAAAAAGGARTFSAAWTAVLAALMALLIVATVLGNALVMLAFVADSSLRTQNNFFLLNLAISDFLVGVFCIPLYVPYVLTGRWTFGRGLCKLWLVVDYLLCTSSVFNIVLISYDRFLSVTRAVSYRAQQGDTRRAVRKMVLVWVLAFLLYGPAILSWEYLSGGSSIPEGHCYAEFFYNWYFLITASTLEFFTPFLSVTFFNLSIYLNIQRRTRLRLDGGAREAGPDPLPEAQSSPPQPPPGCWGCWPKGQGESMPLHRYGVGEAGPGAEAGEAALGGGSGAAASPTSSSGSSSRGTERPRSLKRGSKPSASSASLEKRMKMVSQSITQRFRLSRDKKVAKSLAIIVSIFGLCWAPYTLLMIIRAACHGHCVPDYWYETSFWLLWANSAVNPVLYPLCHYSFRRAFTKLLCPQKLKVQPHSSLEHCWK
Description: (§1) In vitro effective concentration for H-3-mediated contraction of guinea pig ileum

[5] = target: Histamine H1 receptor (Cavia porcellus) (UniProt P31389); settings: Ileum
Description: In vitro effective concentration for H1-mediated contraction of guinea pig ileum

[6] = target: Histamine H3 receptor (Cavia porcellus) (UniProt Q9JI35); settings: Ileum; remark: listed apart in the source
Description: as §1

[7] = target: Histamine H1 receptor (Cavia porcellus) (UniProt P31389); settings: Ileum; remark: listed apart in the source
Description: In vitro effective concentration for H-1-mediated contraction of guinea pig ileum

Histamine H3 receptor, sequence (Q9JI35 whole entry): as above
Histamine H1 receptor (Cavia porcellus), sequence (P31389 whole entry): as the sequence (P31389 whole entry) above

| Structure (SMILES) | Ki [1] | other results |
| --- | --- | --- |
| C[C@H]1NCCC[C@@H]1c1cnc[nH]1 | > 2000 nM | – |
| c1ccc(C[C@H]2NCC[C@@H]2c2c[nH]cn2)cc1 | > 2000 nM | – |
| C[C@H]1C[C@H](c2cnc[nH]2)CN1 | 76 nM | – |
| CC[C@H]1NCC[C@@H]1c1cnc[nH]1 | 150 nM | – |
| C[C@H]1NCC[C@@H]1c1c[nH]cn1 | 3 nM | – |
| C[C@H]1CNC[C@H]1c1c[nH]cn1 | 3 nM | – |
| C[C@@H]1NCC[C@@H]1c1c[nH]cn1 | 59 nM | – |
| C[C@H]1NC[C@@H]1c1c[nH]cn1 | 7 nM | ED50 [2]: > 0.3 mg/kg |
| C[C@]1(c2c[nH]cn2)CCNC1 | 170 nM | – |
| C[C@@H]1CNC[C@H]1c1cnc[nH]1 | 5 nM | – |
| c1nc(C2CCNC2)c[nH]1 (stereo not given) | 2 nM | ED50 [2]: 0.3 mg/kg |
| C[C@@H](N)Cc1c[nH]cn1 | – | Ki [3]: > 10000 nM; pD2 [4]: 8.2; pD2 [5]: 5.4 |
| C[C@H]1CNC[C@@H]1c1c[nH]cn1 | 2.3 nM | Ki [3]: > 10000 nM; pD2 [6]: 7.5; pD2 [7]: < 4 |

— ChEMBL document CHEMBL1131557 (Bioorg Med Chem Lett, 1998)
